Holding throughout (format): cell-based
Assay [1] addresses T1, CRM1 (Homo sapiens, UniProt O14980).
T1 construct: endogenous in cells; host or cells: U2OS cells stably expressing Rev-GFP
Kind of assay: Inhibition of nuclear export, RevGFP assay in U2OS-RevGFP cells. The note with it: approximately 1 hour incubation. As to the method:
The inhibition of CRM1 mediated nuclear export by compounds of the invention was determined in a RevGFP assay. Rev is a protein from human immunodeficiency virus type 1 (HIV-1) and contains a nuclear export signal (NES) in its C-terminal domain and a nuclear localization signal (NLS) in its N-terminal domain. Nuclear export of Rev protein is dependent on the classical NES/CRM1 pathway (Neville et al, 1997, Kau et al, 2003).
In this assay, U2OS-RevGFP cells were seeded onto clear-bottom, black, 384-well plates the day before the experiment. Compounds were serially diluted 1:2 starting from 40 μM in a separate 384-well plate in DMEM, and then transferred onto cells. Cells were incubated with compound for approximately 1 hour before fixation with 3.7% formaldehyde and nuclei staining with Hoechst 33258. The amount of GFP in cell nuclei was measured and compound IC50s were determined (Kau et al, 2003).

Assay [2] relates to 3T3 cells. As to the kind of experiment: MTT cell proliferation assay. The note with it: Mus musculus, NIH3T3, approximately 64-72 hours. How it is done: (§1) The MTT cell proliferation assay was used to study the cytotoxic properties of the compounds. The assay was performed according to the method described by Roche Molecular Biochemicals, with minor modifications. The assay is based on the cleavage of the tetrazolium salt, MTT, in the presence of an electron-coupling reagent. The water-insoluble formazan salt produced must be solubilized in an additional step. Cells grown in a 96-well tissue culture plate were incubated with the MTT solution for approximately 4 hours. After this incubation period, a water-insoluble formazan dye formed. After solubilization, the formazan dye was quantitated using a scanning multi-well spectrophotometer (ELISA reader). […] The cells were seeded at 5,000-10,000 cells in each well of 96-well plate in 100 μL of fresh culture medium and were allowed to attach overnight. The stock solutions of the compounds were diluted in 100 μL cell culture medium to obtain eight concentrations of each test compound, ranging from 1 nM to 30 μM. […] All optical densities were measured at 490 nm using a Vmax Kinetic Microplate Reader (Molecular Devices). In most cases, the assay was performed in duplicate and the results were presented as a mean percent inhibition to the negative control±SE. The following formula was used to calculate the percent of inhibition: Inhibition (%)=(1−(ODo/OD))×100.
(§2) The compounds were tested against Z138, MM1S and 3T3 cells. The Z138 cell line is a mature B-cell acute lymphoblastic leukemia cell line derived from a patient with chronic lumphocytic leukemia. The MM1S cell line was established from the peripheral blood of a human multiple myeloma patient. 3T3 cells are standard fibroblast cells; they were originally isolated from Swiss mouse embryo tissue.

Assay [3] relates to MM1S cells. As to the kind of experiment: MTT cell proliferation assay. The note with it: Homo sapiens, MM1.S, approximately 64-72 hours. As to the method:
as §1, §2

The test system of assay [4] is Z138 cells. As to the kind of experiment: MTT cell proliferation assay. The note with it: Homo sapiens, Z-138, approximately 64-72 hours. How it is done:
as §1, §2

A value given as a limit tells only on which side of the number the result lay.

T1 sequence (O14980 whole entry): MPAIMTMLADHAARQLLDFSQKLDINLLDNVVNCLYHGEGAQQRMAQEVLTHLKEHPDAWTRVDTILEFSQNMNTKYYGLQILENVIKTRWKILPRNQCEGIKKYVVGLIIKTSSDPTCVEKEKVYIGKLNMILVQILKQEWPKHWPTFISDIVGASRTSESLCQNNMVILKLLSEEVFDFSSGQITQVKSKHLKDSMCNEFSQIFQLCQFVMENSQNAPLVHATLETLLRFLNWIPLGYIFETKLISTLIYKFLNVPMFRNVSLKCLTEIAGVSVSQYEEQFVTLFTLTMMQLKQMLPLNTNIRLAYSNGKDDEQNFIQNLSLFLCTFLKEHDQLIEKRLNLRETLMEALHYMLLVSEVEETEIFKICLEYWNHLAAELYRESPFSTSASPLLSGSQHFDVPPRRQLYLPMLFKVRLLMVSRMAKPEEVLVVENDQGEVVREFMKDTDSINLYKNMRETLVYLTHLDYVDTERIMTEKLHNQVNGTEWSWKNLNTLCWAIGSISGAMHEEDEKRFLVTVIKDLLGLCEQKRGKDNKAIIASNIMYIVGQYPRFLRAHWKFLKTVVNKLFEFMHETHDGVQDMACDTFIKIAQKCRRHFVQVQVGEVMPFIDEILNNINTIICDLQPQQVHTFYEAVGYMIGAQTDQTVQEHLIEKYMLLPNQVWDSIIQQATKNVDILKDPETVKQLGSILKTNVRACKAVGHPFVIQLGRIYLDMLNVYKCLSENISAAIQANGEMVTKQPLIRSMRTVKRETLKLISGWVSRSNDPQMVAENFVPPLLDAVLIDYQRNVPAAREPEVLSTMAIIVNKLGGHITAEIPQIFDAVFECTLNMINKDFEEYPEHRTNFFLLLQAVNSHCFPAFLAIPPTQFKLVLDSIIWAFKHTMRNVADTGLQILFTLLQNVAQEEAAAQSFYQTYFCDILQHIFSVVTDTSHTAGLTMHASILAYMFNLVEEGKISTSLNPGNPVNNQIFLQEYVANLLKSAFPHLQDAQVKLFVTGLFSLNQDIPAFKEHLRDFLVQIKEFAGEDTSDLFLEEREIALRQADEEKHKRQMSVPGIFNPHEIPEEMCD

As to `N#CC(=Cn1cnc(-c2cc(C(F)(F)F)cc(C(F)(F)F)c2)n1)c1ccccn1` [Compound 100, 3-(3-(3,5-bis(trifluoromethyl)phenyl)-1H-1,2,4-triazol-1-yl)-2-(pyridin-2-yl)acrylonitrile], the IC50 in assay [1], in assay [2], in assay [3] and in assay [4] was greater than 30 µM throughout.

Take `CC(C)OC(=O)/C(=C/n1cnc(-c2cc(C(F)(F)F)cc(C(F)(F)F)c2)n1)c1cccnc1` [Compound 101, (E)-isopropyl 3-(3-(3,5-bis(trifluoromethyl)phenyl)-1H-1,2,4-triazol-1-yl)-2-(pyridin-3-yl)acrylate]: the IC50 in assay [1] is 5 to 30 µM; in assay [2] it was 5 to 30 µM; in assay [3] it was less than 0.1 µM; in assay [4], 0.1 to 5 µM.

As to `N#C/C(=C/n1cnc(-c2cc(C(F)(F)F)cc(C(F)(F)F)c2)n1)c1cccnc1` [Compound 102, (E)-3-(3-(3,5-bis(trifluoromethyl)phenyl)-1H-1,2,4-triazol-1-yl)-2-(pyridin-3-yl)acrylonitrile], the IC50 lay within 0.1 to 5 µM in assay [1], 5 to 30 µM in assay [2], 0.1 to 5 µM in assay [3] and 0.1 to 5 µM in assay [4].

As to `NC(=O)/C(=C/n1cnc(-c2cc(C(F)(F)F)cc(C(F)(F)F)c2)n1)c1cccnc1` [Compound 104, (E)-3-(3-(3,5-bis(trifluoromethyl)phenyl)-1H-1,2,4-triazol-1-yl)-2-(pyridin-3-yl)acrylamide], the IC50 in assay [1] is 0.1 to 5 µM; in assay [2], 0.1 to 5 µM; in assay [3], less than 0.1 µM; in assay [4], less than 0.1 µM.

Take `N#C/C(=C/n1cnc(-c2cc(C(F)(F)F)cc(C(F)(F)F)c2)n1)c1ccncc1` [Compound 105, (E)-3-(3-(3,5-bis(trifluoromethyl)phenyl)-1H-1,2,4-triazol-1-yl)-2-(pyridin-4-yl)acrylonitrile]: the values for the IC50 in assay [1], in assay [2] and in assay [3] were 0.1 to 5 µM, greater than 30 µM and 0.1 to 5 µM, respectively.

With `NC(=O)/C(=C/n1cnc(-c2cc(C(F)(F)F)cc(C(F)(F)F)c2)n1)c1ccncc1` [Compound 108, (E)-3-(3-(3,5-bis(trifluoromethyl)phenyl)-1H-1,2,4-triazol-1-yl)-2-(pyridin-4-yl)acrylamide], the IC50 in assay [1] was less than 0.1 µM; in assay [2], greater than 30 µM; in assay [3], less than 0.1 µM; in assay [4], 0.1 to 5 µM.

Take `NC(=O)/C(=C/n1cnc(-c2cc(C(F)(F)F)cc(C(F)(F)F)c2)n1)c1nccs1` [Compound 111, (Z)-3-(3-(3,5-bis(trifluoromethyl)phenyl)-1H-1,2,4-triazol-1-yl)-2-(thiazol-2-yl)acrylamide]: the IC50 is less than 0.1 µM in assay [1], greater than 30 µM in assay [2] and less than 0.1 µM in assay [3].

As for `CN(C)C(=O)/C(=C/n1cnc(-c2cc(C(F)(F)F)cc(C(F)(F)F)c2)n1)c1ccncc1` [Compound 113, (E)-3-(3-(3,5-bis(trifluoromethyl)phenyl)-1H-1,2,4-triazol-1-yl)-N,N-dimethyl-2-(pyridin-4-yl)acrylamide], the IC50 fell in the range of 5 to 30 µM in assay [1] and 0.1 to 5 µM in assay [3].

As for `Cn1cc(/C(=C\n2cnc(-c3cc(C(F)(F)F)cc(C(F)(F)F)c3)n2)C(N)=O)cn1` [Compound 114, (E)-3-(3-(3,5-bis(trifluoromethyl)phenyl)-1H-1,2,4-triazol-1-yl)-2-(1-methyl-1H-pyrazol-4-yl)acrylamide], the figures for the IC50 in assay [1] and in assay [3] were 0.1 to 5 µM and less than 0.1 µM, respectively.

As to `CC(C)OC(=O)/C(=C/n1cnc(-c2cc(C(F)(F)F)cc(C(F)(F)F)c2)n1)c1cncnc1` [Compound 115, isopropyl (E)-3-(3-(3,5-bis(trifluoromethyl)phenyl)-1H-1,2,4-triazol-1-yl)-2-(pyrimidin-5-yl)acrylate], the IC50 in assay [1] and in assay [3] was 0.1 to 5 µM in each case.

On to `Cc1noc(C)c1/C(=C\n1cnc(-c2cc(C(F)(F)F)cc(C(F)(F)F)c2)n1)C(=O)OC(C)C` [Compound 116, isopropyl (E)-3-(3-(3,5-bis (trifluoromethyl)phenyl)-1H-1,2,4-triazol-1-yl)-2-(3,5-dimethylisoxazol-4-yl) acrylate], for which the IC50 in assay [1] and in assay [3] was 0.1 to 5 µM each time.

`Cc1noc(C)c1/C(=C\n1cnc(-c2cc(C(F)(F)F)cc(C(F)(F)F)c2)n1)C(N)=O` [Compound 118, (E)-3-(3-(3,5-bis(trifluoromethyl)phenyl)-1H-1,2,4-triazol-1-yl)-2-(3,5-dimethylisoxazol-4-yl) acrylamide]: the IC50 is 0.1 to 5 µM in assay [1], greater than 30 µM in assay [2], 0.1 to 5 µM in assay [3] and 0.1 to 5 µM in assay [4].

For `CC(C)OC(=O)/C(=C/n1cnc(-c2cc(C(F)(F)F)cc(C(F)(F)F)c2)n1)c1cncc(F)c1` [Compound 119, isopropyl (E)-3-(3-(3,5-bis(trifluoromethyl)phenyl)-1H-1,2,4-triazol-1-yl)-2-(5-fluoropyridin-3-yl)acrylate], the IC50 in assay [1] was 0.1 to 5 µM; in assay [2] it was greater than 30 µM; in assay [3] it was 0.1 to 5 µM; in assay [4] it was 0.1 to 5 µM.

As for `COc1ccc(/C(=C\n2cnc(-c3cc(C(F)(F)F)cc(C(F)(F)F)c3)n2)C(=O)OC(C)C)cn1` [Compound 120, isopropyl (E)-3-(3-(3,5-bis (trifluoromethyl)phenyl)-1H-1,2,4-triazol-1-yl)-2-(6-methoxypyridin-3-yl) acrylate], the IC50 in assay [1] was 0.1 to 5 µM; in assay [2], greater than 30 µM; in assay [3] it was 0.1 to 5 µM; in assay [4], 0.1 to 5 µM.

Consider `CC(C)OC(=O)/C(=C/n1cnc(-c2cc(C(F)(F)F)cc(C(F)(F)F)c2)n1)c1cnn(C)c1` [Compound 130, isopropyl (E)-3-(3-(3,5-bis(trifluoromethyl)phenyl)-1H-1,2,4-triazol-1-yl)-2-(1-methyl-1H-pyrazol-4-yl)acrylate], for which the IC50 is 0.1 to 5 µM in assay [1] and less than 0.1 µM in assay [3].

In assay [1], `NC(=O)/C(=C/n1cnc(-c2cc(C(F)(F)F)cc(C(F)(F)F)c2)n1)c1cncc(F)c1` [Compound 132, (E)-3-(3-(3,5-bis(trifluoromethyl)phenyl)-1H-1,2,4-triazol-1-yl)-2-(5-fluoropyridin-3-yl)acrylamide] returned an IC50 of less than 0.1 µM.

As to `NC(=O)/C(=C/n1cnc(-c2cc(C(F)(F)F)cc(C(F)(F)F)c2)n1)c1cnc(N)nc1` [Compound 136, (E)-2-(2-aminopyrimidin-5-yl)-3-(3-(3,5-bis(trifluoromethyl)phenyl)-1H-1,2,4-triazol-1-yl)acrylamide], the IC50 in assay [1] is 0.1 to 5 µM; in assay [2] it was greater than 30 µM; in assay [3], less than 0.1 µM; in assay [4] it was 0.1 to 5 µM.

For `NC(=O)/C(=C\n1cnc(-c2cc(C(F)(F)F)cc(C(F)(F)F)c2)n1)c1cncnc1` [Compound 153, (Z)-3-(3-(3,5-bis(trifluoromethyl)phenyl)-1H-1,2,4-triazol-1-yl)-2-(pyrimidin-5-yl)acrylamide], the IC50 in assay [2] was greater than 30 µM; in assay [3], less than 0.1 µM; in assay [4], 0.1 to 5 µM.

With `NC(=O)/C(=C\n1cnc(-c2cc(C(F)(F)F)cc(C(F)(F)F)c2)n1)c1cccnc1F` [Compound 157, (Z)-3-(3-(3,5-bis(trifluoromethyl)phenyl)-1H-1,2,4-triazol-1-yl)-2-(2-fluoropyridin-3-yl)acrylamide], the IC50 in assay [2], in assay [3] and in assay [4] was 0.1 to 5 µM in each case.

For the origin of these results see patent US11945794B2, “Nuclear transport modulators and uses thereof” (Karyopharm Therapeutics Inc., priority 2013, dated 2024).
